assay: Human HepG2 cell viability assay in 384 well format; assay type: toxicity, cell-based; design: dose 125 nL, time 70.5 hour; concentration not given beside the values; details: HepG2 cells, read-out: Inhibition

SMILES	cytotoxicity at 70.5 h [%]
c1cc(CNc2ncc(-c3cnccn3)c(C3CC3)n2)ccn1	-2.59
CCc1c(C(=O)NC2CCS(=O)(=O)C2)cnn1-c1ccc(F)cc1 (centres undefined)	-22.6
CCN(Cc1cnn(C)c1)C(=O)c1ccc(C)c(N2CCNC2=O)c1	-17.2
Cc1cc(C)n(C2CCCN(C(=O)c3cnc4onc(C)c4c3)C2)n1 (centres undefined)	-7.95
Cc1ccsc1CN(CCCC(F)(F)F)Cc1ccccn1	-10.1
Cc1csc([C@H]2C[C@@H]3CCN(Cc4cc(C)on4)C[C@H]3O2)n1	-5.27
Cc1cnn(CC2CCCN2C(=O)c2cccc(F)c2F)c1 (centres undefined)	-1.26
Fc1ccc(Sc2ccccc2CNC2=NCCN2)cc1	-5.29
CCOc1ccc2[nH]c3c(N(C)CC4OCCO4)ncnc3c2c1	-21.1
COc1ccccc1C(=O)Nc1c(F)c(C(=O)N2CCCC2)nn1C	-0.747
O=C(NCCCO)C1(N2CCCCC2)Cc2ccccc2C1	-10.2
NC(=O)c1c(NC(=O)C2CCCO2)sc2c1CCc1ccccc1-2 (centres undefined)	-3.81
CCN(CCNC(=O)c1cccc(C)c1C)C1CC1	-4.1
NC(=O)NC1(C(=O)N2CCc3c(Cl)cccc3C2)CCCCC1	8.62
CC(=O)NC1CCN(c2nc(N(C)C)nc3c2CCCC3)CC1	-1.98
CC(NC(=O)OC(C)(C)C)c1nnc(S(=O)(=O)Cc2ccccc2Cl)o1 (centres undefined)	-4.85
Cc1n[nH]c(C)c1C1COCCN1c1ncnc2sccc12 (centres undefined)	-13
O=C(Cn1c(=O)n(Cc2ccco2)c2ncccc21)NC1CC1	-4.4
CCn1cc2c(n1)CN(Cc1ccc(C)o1)CC2COCC1CC1 (centres undefined)	-5.09
CCOc1ccccc1-c1noc(CN(C)Cc2cnn(C)c2)n1	2
Cc1nc(CN2CCCC(NCc3cnn(C)c3)C2)no1 (centres undefined)	-8.69
CCOCC(=O)Nc1cccnc1-n1ccnc1C	-6.13
CCCc1cnc(C)nc1N1CCC(Cn2cc(C(C)O)nn2)CC1 (centres undefined)	-13.9

SMILES	cytotoxicity at 70.5 h [%]
Cc1ccc(NC2CCN(C(=O)c3sccc3C3CC3)CC2)nn1	-8.46
CC(c1ccccn1)N(C)C(=O)CN1CCN(c2ccccn2)CC1 (centres undefined)	-11.5
CN1CCN(CC(NCc2ccc(F)cc2)c2ccccc2)CC1 (centres undefined)	17.2
CN(C)CC1CN(C(=O)Cc2ccccc2)Cc2nccn2C1 (centres undefined)	24
Cc1cccc(CN2Cc3nccn3CC(CN3CCOCC3)C2)c1 (centres undefined)	-9.03
CC1COC2(CCN(C(=O)c3ncoc3C(C)C)CC2)O1 (centres undefined)	11.1
COCc1ccc(C(=O)N2CCN(CC(C)O)CC2)cc1 (centres undefined)	-3.37
Cc1ccc(CN[C@@H]2COC[C@H]2c2ccc(F)cc2)cc1C	3.52
O=C(NCCc1nc(-c2cccnc2)no1)c1ccc(C2CCCO2)s1 (centres undefined)	6.34
Cc1cc(C)cc(-c2ccc(CC3(C(=O)O)CCOCC3)cc2)c1	31.5
CC(Cc1c(F)cccc1F)NC(=O)Nc1cnn(CC(N)=O)c1 (centres undefined)	-3.56
COCC1(C(=O)N[C@H]2CN(c3ccnc(C)c3)C[C@@H]2C2CC2)CCC1	-8.46
Cc1c(C(=O)N2CCCC(n3nnc4cc(F)ccc43)C2)cnn1C (centres undefined)	-14.1
COCCOC1CCN(C(C(=O)O)c2ccc(F)c(Cl)c2)CC1 (centres undefined)	-9.08
COCC(=O)N1CCC(Nc2ccnc3ccc(Cl)cc23)CC1	4.85
COCCCNC(=O)Cn1nnc(-c2cc3ccccc3o2)n1	-13.2
Cc1cc(C)n(C2CCCN(C(=O)c3ccc4c(c3)COC4)C2)n1 (centres undefined)	1.09
Cc1noc(C)c1CNCC1COCc2c(-c3ccoc3)nnn2C1 (centres undefined)	-9.07
O=C(Nc1ccc(F)cc1)N1C[C@H]2C[C@H](C(=O)N3CCOCC3)[C@@H](C1)O2	-1.46
Cc1cccc2nc(CNC(=O)N3CCC(OCC4CC4)CC3)cn12	24.4
CC(NC(=O)NCC(C)(C)C(N)=O)c1nc(-c2ccccc2)cs1 (centres undefined)	-5.18
Cc1ccc(O)c(CNc2cccc(OCCF)c2)n1	-5.5
CCOC(=O)[C@]12CCCN(Cc3nccs3)C[C@H]1CN(CC(C)C)C2	-3.1

SMILES	cytotoxicity at 70.5 h [%]
Cc1cc(C)n(CCC(=O)OCC(=O)N2CCc3sccc3C2)n1	-4.48
CN1CCC(c2cc(C(F)(F)F)n3ccnc3n2)CC1	24.8
CNC(=O)CN(C)C1CCN(c2ccc(Cl)cc2)CC1	2.05
CC(=O)N1CCN(c2cc(C3CCNCC3)ccn2)CC1	-1.18
Cc1ccc(NC(=O)NC(C)c2nc[nH]n2)s1 (centres undefined)	-8.03
CCC(O)(CNCc1cc[nH]n1)c1ccc(Br)cc1 (centres undefined)	6.78
CCc1cnc(CN2C(=O)CC3(CCSC3)C2=O)o1 (centres undefined)	11.4
Cc1nc(-c2cc(C(=O)N3CCCN(C)CC3)c3ccccn23)cn1C	-2.18
COc1ccc(F)cc1C(C(=O)O)N1CCSCC1 (centres undefined)	-7.69
CO[C@H]1C[C@@H]2CN(C(=O)c3cc4ccc(F)cc4[nH]3)C[C@@H]2C1	-6.74
NC(=O)c1ccc(CN2CCCC(O)C2)cc1 (centres undefined)	-3.47
Cc1cnn(CC(C)NCc2csc(-c3ncccn3)n2)c1 (centres undefined)	-2.17
CNC(=O)C(C)(C)N1CCC[C@H]1C(=O)NC1CCCC1	-0.301
O=C1NC2(CCN(CCO)CC2)CC1c1ccccc1 (centres undefined)	-2.09
Cc1cccc(CNC(=O)CCc2c(C)nc3cc(O)nn3c2C)n1	-14
COc1ccc(CN2C[C@@H]3OCCN(CCN(C)C)[C@@H]3C2)cc1	-3.2
CCCc1nc(C(=O)N2CCn3nc(C(=O)OC)cc3C2)cs1	16.6
Cc1cc2c(=O)n3c(nc2s1)CCN(C(=O)c1ccncc1)CC3	-20
Cc1cc(C)cc(CCC(=O)NC(C)c2nnn[nH]2)c1 (centres undefined)	-2.97
Cc1noc(C)c1-c1cc(C2CCNCC2)ccn1	3.08
CCN1CCN(C2CCN(Cc3cc(C)on3)CC2)C1=O	49.1
CCOC(=O)C1CCN(C(=O)c2cc(Br)ccc2-n2cnnn2)CC1	-6.49
O=C(Nc1ccc(S(=O)(=O)Nc2c(F)cccc2F)cc1)N1CCCC1	-6.84

SMILES	cytotoxicity at 70.5 h [%]
c1cncc(CNc2ncnc3c2CCN(Cc2ccsc2)CC3)c1	-5.06
CNC(=O)C1CCC2(CCNCC2)C1 (centres undefined)	-3.71
Cc1onc(-c2ccncc2)c1C(=O)NC1CCCOC1 (centres undefined)	-9.07
Cc1ccc(C(=O)N2CCOC(c3ncc(CN(C)C)[nH]3)C2)cc1F (centres undefined)	-3.52
CCC(C)Oc1cc(C(=O)Nc2nccs2)ccn1 (centres undefined)	0.776
CCc1cnc(N2Cc3cnc(C(C)(C)C)nc3C2)nc1	-3.57
O=C(N1CCCC1)N1CCc2onc(COc3cccnc3)c2C1	-3.27
CC(C)(C)C(=O)NCCc1cc(N2CCOCC2)nc(NC2CC2)n1	-9.36
O=C(CN1CC(c2nc(C3CC3)no2)C1)NCc1ccc(F)cc1	-4.69
COc1ccc(S(=O)(=O)NCCC(=O)NCc2ccoc2)cc1OC	-11.3
COC(=O)CCC(=O)N(C/C=C/c1ccccc1)CCO	23.1
CC(=O)N1CCC(Cc2cnc(-c3c(C)n[nH]c3C)cn2)C1 (centres undefined)	-13.1
NC(c1ccc(Cl)cc1)c1cccs1 (centres undefined)	9.24
Cc1noc(C)c1CN1CCOC2(CCCN(c3nccs3)C2)C1 (centres undefined)	29.8
Cc1cc(C[C@@H]2COC[C@H]2NCc2ccc(C)c(C)c2)on1	-7.12
Cc1ncc(-c2ccnc(SCCN)n2)c(-c2ccco2)n1	21.8
CS(=O)(=O)NC1CCN(c2cccc(F)c2C#N)CC1	-16.5
CCNc1ncc2c(n1)CN(c1ccc(CC)cc1)C2=O	-8.79
Cc1cccc(NC(=O)C2(n3cnnn3)CCCCC2)n1	-26.9
CCc1nnsc1C(=O)NCc1nnc2n1CCCCC2	-3.94
COCCNC(=O)NCc1ccc(-n2ccc(C(F)(F)F)n2)cc1	-7.44
COc1cccc(COC(C)C(=O)N(C)Cc2nnc3n2CCC3)c1 (centres undefined)	-3.46
CC(Cn1cccn1)NC(=O)N1CCN(Cc2ccsc2)CC1 (centres undefined)	-1.89

SMILES	cytotoxicity at 70.5 h [%]
Cn1cnc(S(=O)(=O)N2CCO[C@H]3[C@@H](OCC4CC4)CC[C@@H]32)c1	11.1
O=S(=O)(C1CC1)N1CCc2ncnc(N3CCCC3)c2CC1	-14.9
CCOc1ncccc1NC(=O)NC1CCN(C(C)=O)CC1	1.62
Cc1ccc(C(=O)O)cc1CNC(=O)CN1CC(C)(C)[C@@](C)(O)C1	-6.75
O=C(NCc1nn(-c2ccccc2)c2c1CCC2)NC1CCOCC1	-0.276
COc1cc(CN)c(OC)c2c1OCO2	-15.1
c1ccc(-c2nc(CCNC3CCOC4(CCOCC4)C3)no2)cc1 (centres undefined)	-8.69
N#Cc1cc(NC(=O)c2cc[nH]n2)ccc1N1CCC(O)CC1	9.29
N#Cc1cccn(CCOc2ccc(Cl)cc2)c1=O	-1.43
CN1CCN(Cc2ccc(F)cc2)Cc2cccnc21	-7.2
Cc1ccc(S(=O)(=O)N2CC[C@@H]3C[C@H](NC(=O)c4[nH]ncc4Br)[C@@H]32)cc1	-5.6
Cc1cc(-c2nc(-c3ccccn3)nn2C2CCN(C)CC2)nc(C)n1	-3.28
c1cncc(-c2ccc3c(c2)C2(CC3)CCN(c3nncs3)CC2)c1	-13.1
C[C@]1(O)CCN(Cc2ncccc2F)C[C@@H]1Oc1cccc(F)c1	-3.05
CN1N=C(c2nc(Cc3cccc(Br)c3)no2)CCC1=O	-2.2
c1ccc(OCCCn2ccnc2-c2cn(C3CCNCC3)nn2)cc1	-4.27
O=C(CN1C(=O)CCCc2sccc21)NC1CCc2nccn2C1 (centres undefined)	-1.68
CN1CC2(CCN(C(=O)Cc3ccc(O)c(F)c3)CC2)CC1=O	10.1
Cc1nc2ccccc2nc1CN1CCCCC1Cn1cncn1 (centres undefined)	-8.21
O=C(N[C@H]1CN(Cc2cccs2)[C@@H]2CCCO[C@H]12)c1cccnc1	-18.4
c1coc(-c2noc(CN3CCc4c(ncn4C4CC4)C3)n2)c1	1.12
CN(C)C(=O)N1CC(C(=O)NCC2CC2)C2(CCOCC2)C1 (centres undefined)	3.79
